Several values for one entry are separate records, joined by “and”; a condition that tells them apart may be missing. Identical values can stand only once.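 Dose response: 5 concentrations. Exposure: 48 h. Format: 96-well plates. Endpoint: linear interpolation; highest concentration if not reached. GI50 = concentration required for 50% inhibition of growth. TGI: concentration producing complete growth inhibition.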
Key:
Test in all cases: NCI anticancer screen, dose series, 48 h
A549 NSCLC = tested on: A549 NSCLC
OVCAR-8 ovarian = tested on: OVCAR-8 ovarian
SR leukemia = tested on: SR leukemia
BT-549 breast = tested on: BT-549 breast
OVCAR-4 ovarian = tested on: OVCAR-4 ovarian
OVCAR-5 ovarian = tested on: OVCAR-5 ovarian
ACHN renal = tested on: ACHN renal
NCI-H226 lung = tested on: NCI-H226 lung
HS 578T breast = tested on: HS 578T breast
TK-10 renal = tested on: TK-10 renal
SK-MEL-28 melanoma = tested on: SK-MEL-28 melanoma
CAKI-1 renal = tested on: CAKI-1 renal
SNB-75 CNS = tested on: SNB-75 CNS
MDA-MB-231 breast = tested on: MDA-MB-231 breast
SF-295 CNS = tested on: SF-295 CNS
OVCAR-3 ovarian = tested on: OVCAR-3 ovarian
SK-OV-3 ovarian = tested on: SK-OV-3 ovarian

Compound	TGI (A549 NSCLC)	TGI (OVCAR-8 ovarian)	TGI (SR leukemia)	TGI (BT-549 breast)	TGI (OVCAR-4 ovarian)	TGI (OVCAR-5 ovarian)	TGI (ACHN renal)	TGI (NCI-H226 lung)	TGI (HS 578T breast)	TGI (TK-10 renal)	TGI (SK-MEL-28 melanoma)	TGI (CAKI-1 renal)	TGI (SNB-75 CNS)	TGI (MDA-MB-231 breast)	TGI (SF-295 CNS)	TGI (OVCAR-3 ovarian)	TGI (SK-OV-3 ovarian)	GI50 (NCI-H226 lung)	GI50 (A549 NSCLC)	GI50 (SNB-75 CNS)
CCC(=O)c1ccc2[nH]c3c(C)c4c(=O)cc(C)[nH]c4c(C)c3c2c1	> 100 µM	> 100 µM	> 100 µM	> 100 µM	> 100 µM	> 100 µM	> 100 µM	> 100 µM	> 100 µM	> 100 µM	> 100 µM	> 100 µM	> 100 µM	> 100 µM	> 100 µM	–	–	–	–	–
Cc1oc2c(Cl)cc(O)c(Cl)c2c2cccc1-2	> 100 µM	82.6 µM	77 µM	74.2 µM	36.9 µM	> 100 µM	> 100 µM	61.6 µM	> 100 µM	> 100 µM	57.5 µM	> 100 µM	20.7 µM	> 100 µM	> 100 µM	56.6 µM	> 100 µM	–	–	–
COc1cc(OC)c(/C=C\c2cc(/C=C/c3c(OC)cc(OC)cc3OC)c3ccccc3[n+]2C)c(OC)c1	> 41.7 µM	5.34 µM	–	> 24.7 µM	36.4 µM	57 µM	25.8 µM	23.6 µM	97.9 µM	> 49 µM	10.9 µM	–	14.2 µM	10.2 µM	10.9 µM	6.17 µM	> 48 µM	–	–	–
CC(=O)NC(c1nc2cc(C)c(C)cc2[nH]1)c1nc2cc(C)c(C)cc2[nH]1	65.2 µM	47.5 µM	–	61.6 µM	72.8 µM	> 100 µM	> 100 µM	–	79.2 µM	89.1 µM	53.4 µM	52.2 µM	50.7 µM	76 µM	49.1 µM	42.2 µM	71.9 µM	–	–	–
Cc1ccc(-c2cc(C(F)(F)F)nn2-c2ccc(S(N)(=O)=O)cc2)cc1	> 52.6 µM	> 62.8 µM	45.3 µM	32.1 µM	46.4 µM	> 59.8 µM	> 56 µM	> 100 µM	58.7 µM	> 59.2 µM	> 56.2 µM	> 60.1 µM	> 53.8 µM	> 54.2 µM	55.4 µM	32 µM	> 57 µM	28.2 µM	–	–
C1=C(c2ccccc2)Nc2nnnn2C1c1ccccc1 (centres undefined)	> 100 µM	> 100 µM	51.3 µM	–	–	> 100 µM	57.2 µM	> 100 µM	> 100 µM	73.9 µM	–	> 100 µM	–	> 100 µM	88.5 µM	> 100 µM	> 100 µM	–	–	–
S=C1CC(c2ccccc2)Sc2ccccc2N1 (centres undefined)	–	> 100 µM	> 100 µM	> 100 µM	> 100 µM	> 100 µM	> 100 µM	> 100 µM	> 100 µM	> 100 µM	> 100 µM	> 100 µM	> 100 µM	> 100 µM	> 100 µM	> 100 µM	> 100 µM	–	–	–
CC1CCC2(C(=O)O)CCC3(C)C(=CCC4C5(C)CCC(O)C(C)(C)C5CCC43C)C2C1C (centres undefined)	21.4 µM and > 100 µM	21 µM and 35.2 µM	59.8 µM	40.5 µM	24.2 µM and 31.9 µM	19.6 µM and 23.2 µM	–	18.7 µM and 37.7 µM	25.2 µM	43.9 µM	–	16.6 µM and 17.5 µM	16.5 µM and 30.4 µM	26.2 µM	10.2 µM	18.4 µM and 26.8 µM	27 µM and 35.1 µM	–	10.1 µM and 26.4 µM	1.52 µM and 13.3 µM
COc1cccc(/C=N/[N-]C(N)=O)c1[O-].[Ni+2].[OH3+].c1ccc(-c2ccccn2)nc1	> 100 µM	> 100 µM	–	–	> 100 µM	> 100 µM	> 100 µM	> 100 µM	–	–	> 100 µM	> 100 µM	> 100 µM	–	> 100 µM	> 100 µM	> 100 µM	–	–	–
CC1CC[C@@]2(OC1)OC1CC3C4CCC5C[C@@H](OC6OC(CO)C(OC7OC(CO)C(O)C(OC8OC(CO)C(O)C(OC9OC(CO)C(O)C(O)C9O)C8O)C7OC7OC(CO)C(O)C(O)C7O)C(O)C6O)[C@H](O)C[C@]5(C)C4CC[C@]3(C)C1[C@@H]2C (some centres undefined)	> 80.5 µM	> 80.5 µM	–	> 80.5 µM	> 80.5 µM	> 80.5 µM	> 80.5 µM	> 80.5 µM	> 80.5 µM	> 80.5 µM	> 80.5 µM	> 80.5 µM	> 80.5 µM	> 80.5 µM	> 80.5 µM	> 80.5 µM	> 80.5 µM	–	–	–

Source: PubChem BioAssay (NCI)
